# Several values for one entry are separate records, joined by “and”; a condition that tells them apart may be missing. Equal values may be shown once. Entries after “also recorded” stand apart in the source; their conditions may differ. Read-outs that look alike come from different tables or passages of the source. Marks after values point to notes of the source that are not given here.
# Target: T1, EphrinB2-EphB4 (Homo sapiens, UniProt P54760)
# T1 construct: soluble human EphB1-His, EphB2-His, and EphB4-His ectodomains; commercially available human EphrinB1-Fc (EB1), EphrinB2-Fc (EB2), and EphrinB3-Fc (EB3) ectodomain proteins; purchased
# T1 sequence (P54760 16-539 limits assumed): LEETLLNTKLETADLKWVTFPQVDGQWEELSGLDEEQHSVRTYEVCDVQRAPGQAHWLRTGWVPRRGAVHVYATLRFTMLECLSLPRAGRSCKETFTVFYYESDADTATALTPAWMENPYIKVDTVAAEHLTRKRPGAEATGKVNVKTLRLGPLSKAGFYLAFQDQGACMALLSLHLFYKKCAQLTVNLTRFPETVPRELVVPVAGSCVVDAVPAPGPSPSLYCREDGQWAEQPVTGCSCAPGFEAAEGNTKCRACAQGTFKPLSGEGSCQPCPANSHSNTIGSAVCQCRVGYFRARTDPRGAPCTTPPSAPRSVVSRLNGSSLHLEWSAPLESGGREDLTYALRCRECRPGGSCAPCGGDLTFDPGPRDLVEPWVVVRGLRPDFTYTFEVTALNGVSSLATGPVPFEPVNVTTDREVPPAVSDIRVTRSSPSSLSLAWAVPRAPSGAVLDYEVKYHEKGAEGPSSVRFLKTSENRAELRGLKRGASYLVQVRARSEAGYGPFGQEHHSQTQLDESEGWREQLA
# Assay: Octet 80 sec association/500 sec dissociation, immobilized human EphrinB2-Fc binding to soluble human EphB4-His
# Conditions: for EphB4 Inhibition Percent, Inhibition of Association ONLY: at 3.2 μM and 80 seconds; for EphB4 Inhibition Percent, Inhibition of Association ONLY / EphB4 Inhibition Percent, Inhibition of Association-Dissociation: immobilized human EphrinB2, 25 nM soluble human EphB4; for EphB4 Inhibition Percent, Inhibition of Association-Dissociation: at 3.2 μM and 580 seconds; for inhibition at 3.2 µM / % Inhibited (AUC), Association + Dissociation / % Inhibited (AUC), Association / IC50 / inhibition: EphB4; for inhibition at 3.2 µM: 25 nM EphB4, 3.2 μM compound, A20-I as max control, 0* = less than 0, no inhibition; for % Inhibited (AUC), Association + Dissociation: 0-160 sec; for % Inhibited (AUC), Association + Dissociation / % Inhibited (AUC), Association: 50 nM, 10 μM compound, Table 4
# Outline: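 EphrinB2-Fc captured on AHC biosensors, then soluble His-tagged EphB ectodomain (25 nM for % inhibition runs) associated 80 s and dissociated 500 s in PBS, 0.05% Tween-20, 1% DMSO ± compound. Compounds tested at 0.1–3.2 μM with a 10 μM max standard; IC50 from AUC of full traces or at 75 s and 135 s.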
# [1] = read-out: % Inhibition: Association + Dissociation (160 sec)
# [2] = read-out: % Inhibition: Association ONLY (80 sec)
# [3] = Association (75″), read-out: Absolute IC50
# [4] = Association (75″), read-out: Relative IC50
# [5] = Association (AUC), read-out: Absolute IC50
# [6] = Association (AUC), read-out: Relative IC50
# [7] = Dissociation (135″), read-out: Absolute IC50
# [8] = Dissociation (135″), read-out: Relative IC50
# [9] = Full AUC, read-out: Absolute IC50
# [10] = Full AUC, read-out: Relative IC50
# [11] = highest dose, typically 3.2 μM, read-out: Association (% Inhibited (AUC))
# [12] = highest dose, typically 3.2 μM, read-out: Association + Dissociation (% Inhibited (AUC))
Structure (SMILES),"EphB4 Inhibition Percent, Inhibition of Association ONLY","EphB4 Inhibition Percent, Inhibition of Association-Dissociation",inhibition at 3.2 µM [1],inhibition at 3.2 µM [2],other results
"COCc1cc(CN2CCN(C)CC2)c(O)c2ncccc12 [Compound 77, 5-(methoxymethyl)-7-((4-methylpiperazin-1-yl)methyl)quinolin-8-ol, reference compound]",0*%,2.7%,,,
"Oc1ccc(CN2CCN(Cc3ccccc3)CC2)c2cccnc12 [Compound 41, 5-((4-benzylpiperazin-1-yl)methyl)quinolin-8-ol]",,,2.6%,0%,"selectivity among EphrinB2-EphB1/B2/B4 (3.2 μM, listed as QPBN): more selective for EphB1"
"Oc1ccc(CN2CCN(Cc3ccc(Br)cc3)CC2)c2cccnc12 [Compound 42, 5-((4-(4-bromobenzyl)piperazin-1-yl)methyl)quinolin-8-ol]",,,0%,0%,"selectivity among EphrinB2-EphB1/B2/B4 (3.2 μM): ability to selectively inhibit EphrinB2-EphB2 and EphrinB2-EphB1 interactions, while sparing the EphrinB2-EphB4 interaction"
"O=[N+]([O-])c1cc(CN2CCS(=O)(=O)CC2)c2cccnc2c1O [Compound 20, 4-((8-hydroxy-7-nitroquinolin-5-yl)methyl)thiomorpholine 1,1-dioxide]",,,0%,0%,"selectivity among EphrinB2-EphB1/B2/B4 (3.2 μM, listed as QTM-NO2): ability to selectively inhibit EphrinB2-EphB2 and EphrinB2-EphB1 interactions, while sparing the EphrinB2-EphB4 interaction; also recorded: less action towards EphB4 but high specificity for EphB1 and EphB2"
"COc1ccc2[nH]cc(C(=O)N3CCOCC3)c2c1 [Compound 63, (5-methoxy-1H-indol-3-yl)(morpholino)methanone]",,,0%,0%,
"Oc1c(Br)cc(CN2CCN(c3ccc(Br)cc3)CC2)c2cccnc12 [Compound 28, 7-bromo-5-((4-(4-bromophenyl)piperazin-1-yl)methyl)quinolin-8-ol]",,,,,"% Inhibited (AUC), Association + Dissociation: 29.3%; % Inhibited (AUC), Association: 16.6%; IC50 [3]: > 3200 nM; IC50 [4]: 80 nM; IC50 [5]: > 3200 nM; IC50 [6]: 120 nM; IC50 [7]: 780 nM; IC50 [8]: 200 nM; IC50 [9]: 320 nM; IC50 [10]: 260 nM; inhibition [11]: 12.5%; inhibition [12]: 36.4%"
"Oc1c(Cl)cc(CN2CCOCC2)c2cccnc12 [Compound 4, 4-((7-chloro-8-hydroxyquinolin-1-ium-5-yl)methyl)morpholin-4-ium chloride]",16.8%,35.5%,,,
"O=[N+]([O-])c1cc(CN2CCOCC2)c2cccnc2c1O [Compound 9, 5-(morpholinomethyl)-7-nitroquinolin-8-ol]",0.6% and 0% and 8.2%,,,,"less % inhibition activity toward EphrinB2-EphB4 (3.2 μM): approximately 20 fold; selectivity among EphrinB2-EphB1/B2/B4 (3.2 μM, listed as A19-NO2): selectively inhibit EphrinB2-EphB2 and EphrinB2-EphB1 interactions, while sparing most of the EphrinB2-EphB4 interaction; also recorded: less action towards EphB4 but high specificity for EphB1 and EphB2; inhibition of EphB4-EphrinB2 binding (association step, general): 0%"
"Oc1c(Cl)cc(CN2CCOCC2)c2cccnc12 [Compound 3, 7-chloro-5-(morpholinomethyl)quinolin-8-ol]",,,35.5%,16.8%,
"Oc1c(I)cc(CN2CCOCC2)c2cccnc12 [Compound 7, 7-iodo-5-(morpholinomethyl)quinolin-8-ol]",,,32.9%,,"% Inhibited (AUC), Association + Dissociation: 26.5%; % Inhibited (AUC), Association: 13.3%; inhibition (10 μM 2×HCl salt, read-out: % Inhibited (AUC), Association): 13.9%; IC50 [3]: > 3200 nM; IC50 [4]: 1700 nM; IC50 [5]: > 3200 nM; IC50 [6]: 1660 nM; IC50 [7]: 3020 nM; IC50 [8]: 980 nM; IC50 [9]: 1260 nM; IC50 [10]: 890 nM; inhibition (first 160 sec, 10 μM 2×HCl salt, read-out: % Inhibited (AUC), Association + Dissociation): 33.9%; inhibition [11]: 15.4%; inhibition [12]: 37%"
"COc1ccccc1N1CCN(Cc2cc(I)c(O)c3ncccc23)CC1 [Compound 71, 7-iodo-5-((4-(2-methoxyphenyl)piperazin-1-yl)methyl)quinolin-8-ol]",,,35.6%,17.5%,
"Oc1c(Br)cc(CN2CCN(Cc3ccc(Br)cc3)CC2)c2cccnc12 [Compound 44, 7-bromo-5-((4-(4-bromobenzyl)piperazin-1-yl)methyl)quinolin-8-ol]",,,28.3%,4.9%,
"Oc1ccc(CN2CCN(Cc3ccc(C(F)(F)F)cc3)CC2)c2cccnc12 [Compound 48, 5-((4-(4-(trifluoromethyl)benzyl)piperazin-1-yl)methyl)quinolin-8-ol]",,,0%,0%,
"Oc1ccc(CN2CCN(c3ccc(Br)cc3)CC2)c2cccnc12 [Compound 26, 5-((4-(4-bromophenyl)piperazin-1-yl)methyl)quinolin-8-ol]",0*%,0*%,,,"selectivity among EphrinB2-EphB1/B2/B4 (3.2 μM, listed as QPB4): ability to selectively inhibit EphrinB2-EphB2 and EphrinB2-EphB1 interactions, while sparing the EphrinB2-EphB4 interaction; also recorded: less action towards EphB4 but high specificity for EphB1 and EphB2"
"COc1ccccc1N1CCN(Cc2cc(Br)c(O)c3ncccc23)CC1 [Compound 70, 7-bromo-5-((4-(2-methoxyphenyl)piperazin-1-yl)methyl)quinolin-8-ol]",,,36.3%,15.1%,
"Oc1ccc(CN2CCN(c3ccc(F)cc3F)CC2)c2cccnc12 [Compound 62, 5-((4-(2,4-difluorophenyl)piperazin-1-yl)methyl)quinolin-8-ol]",5.0%,0*%,,,
"O=[N+]([O-])c1cc(CN2CCOCC2)c2cccnc2c1O [Compound 10, 4-((8-hydroxy-7-nitroquinolin-1-ium-5-yl)methyl)morpholin-4-ium chloride]",0.1% and 0% and 4.1%,9.0% and 0% and 5.9%,,,
"Oc1c(Br)cc(CN2CCOCC2)c2cccnc12 [Compound 5, 7-bromo-5-(morpholinomethyl)quinolin-8-ol]",,,23%,0%,
"COc1ccc2[nH]cc(C(=O)N3CCN(c4ccccc4OC)CC3)c2c1 [Compound 64, (5-methoxy-1H-indol-3-yl)(4-(2-methoxyphenyl)piperazin-1-yl)methanone]",,,0%,0%,
"O=C(Cc1ccccc1)Nc1ccc(N2CCN(Cc3ccc(O)c4ncccc34)CC2)cc1 [Compound 51, N-(4-(4-((8-hydroxyquinolin-5-yl)methyl)piperazin-1-yl)phenyl)-2-phenylacetamide]",,,37.2%,18.1%,
"Oc1c(Br)cc(CN2CCOCC2)c2cccnc12 [Compound 6, 4-((7-bromo-8-hydroxyquinolin-1-ium-5-yl)methyl)morpholin-4-ium chloride]",20.0%,35.9%,,,
"Oc1ccc(CN2CCCCC2)c2cccnc12 [Compound 68, 5-(piperidin-1-ylmethyl)quinolin-8-ol, reference compound]",0*%,5.8%,,,
"Oc1c(Br)cc(CN2CCN(c3ccc(Br)cc3)CC2)c2cccnc12 [Compound 30, 7-bromo-5-((4-(4-bromophenyl)piperazin-1-ium-1-yl)methyl)-8-hydroxyquinolin-1-ium chloride]",16.6% and 12.5%,29.3% and 36.4%,,,
"OCc1ccc2c(CN3CCOCC3)cc(Br)c(O)c2n1 [Compound 13, 7-bromo-2-(hydroxymethyl)-5-(morpholinomethyl)quinolin-8-ol]",,,7.6%,0%,
